# Experimental data reported in ChEMBL document CHEMBL1201862, “PubChem BioAssay data set” (2004).
#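 Tested at 5 concentrations; 48 h exposure; 96-well plates; endpoints linearly interpolated, else capped at highest concentration. GI50 = concentration required for 50% inhibition of growth.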 The source made the active and inactive calls. Rule as the data show it: active = GI50 up to about 1.1 µM and inactive = higher.
# How the values were obtained:
# Test in all cases: NCI tumour cell line growth inhibition, 48 h
# [1] = system: A498
# [2] = system: A549
# [3] = system: CAKI-1
# [4] = system: CCRF-CEM
# [5] = system: HCT-116
# [6] = system: HCT-15
# [7] = system: IGROV-1
# [8] = system: KM12
# [9] = system: M14
# [10] = system: NCI-H226
# [11] = system: NCI-H23
# [12] = system: NCI-H460
# [13] = system: OVCAR-4
# [14] = system: SF-295
# [15] = system: SK-OV-3
# [16] = system: SNB-75
# [17] = system: TK-10
# [18] = system: MCF7
Compound,GI50 [1],GI50 [2],GI50 [3],GI50 [4],GI50 [5],GI50 [6],GI50 [7],GI50 [8],GI50 [9],GI50 [10],GI50 [11],GI50 [12],GI50 [13],GI50 [14],GI50 [15],GI50 [16],GI50 [17],GI50 [18]
O=C1c2ccccc2C(=O)N1Cc1ccccc1-c1c2nc(c(-c3ccccc3CN3C(=O)c4ccccc4C3=O)c3ccc([nH]3)c(-c3ccccc3CN3C(=O)c4ccccc4C3=O)c3nc(c(-c4ccccc4CN4C(=O)c5ccccc5C4=O)c4ccc1[nH]4)C=C3)C=C2,> 100 µM (inactive),> 100 µM (inactive),> 100 µM (inactive),> 100 µM (inactive),> 100 µM (inactive),> 100 µM,> 100 µM (inactive),> 100 µM (inactive),31.2 µM (inactive),> 100 µM (inactive),> 100 µM (inactive),> 100 µM (inactive),> 100 µM (inactive),72.1 µM (inactive),> 100 µM (inactive),> 100 µM (inactive),> 100 µM (inactive),–
CCOc1cccc2sc(N)nc12,> 100 µM (inactive),> 100 µM (inactive),> 100 µM (inactive),–,> 100 µM (inactive),> 100 µM,> 100 µM (inactive),> 100 µM (inactive),> 100 µM (inactive),> 100 µM (inactive),> 100 µM (inactive),> 100 µM (inactive),> 100 µM (inactive),> 100 µM (inactive),> 100 µM (inactive),> 100 µM (inactive),> 100 µM (inactive),–
COc1ccc(-c2cc(-c3ccc(Nc4ccnc5cc(Cl)ccc45)cc3)nc(N)c2C#N)cc1,> 100 µM (inactive),> 100 µM (inactive),> 100 µM (inactive),–,> 100 µM (inactive),> 100 µM,> 100 µM (inactive),> 100 µM (inactive),> 100 µM (inactive),> 100 µM (inactive),> 100 µM (inactive),> 100 µM (inactive),> 100 µM (inactive),> 100 µM (inactive),> 100 µM (inactive),> 100 µM (inactive),> 100 µM (inactive),> 100 µM (inactive)
Cc1c(C)c2cc3c(=O)c(CCl)coc3c(C)c2oc1=O,> 100 µM (inactive),> 100 µM (inactive),–,48.3 µM (inactive),> 100 µM (inactive),> 100 µM,> 100 µM (inactive),> 100 µM (inactive),> 100 µM (inactive),> 100 µM (inactive),> 100 µM (inactive),> 100 µM (inactive),–,> 100 µM (inactive),> 100 µM (inactive),76.4 µM (inactive),> 100 µM (inactive),–
Nc1nc(Cl)cc(/N=N\c2ccccc2)n1,61.5 µM (inactive),48.2 µM (inactive),37.6 µM (inactive),13 µM (inactive),16.4 µM (inactive),12.5 µM,16.6 µM (inactive),92.5 µM (inactive),31.8 µM (inactive),45.2 µM (inactive),21 µM (inactive),–,–,30.7 µM (inactive),66.1 µM (inactive),38.7 µM (inactive),61.2 µM (inactive),48.1 µM (inactive)
O=C(/C=C/c1ccc(O)c(O)c1)NCCc1ccc(-c2ccccc2)cc1,> 100 µM (inactive),> 100 µM (inactive),40.8 µM (inactive),26.5 µM (inactive),27.3 µM (inactive),> 100 µM,–,30.8 µM (inactive),33.4 µM (inactive),–,68.4 µM (inactive),48.9 µM (inactive),> 100 µM (inactive),40.8 µM (inactive),> 100 µM (inactive),> 100 µM (inactive),19.1 µM (inactive),32.3 µM (inactive)
O=C1CC(c2ccc(Cl)cc2)Oc2ccccc21 (centres undefined),26.2 µM (inactive),–,26.3 µM (inactive),11 µM (inactive),37.3 µM (inactive),17 µM,14.6 µM (inactive),12.9 µM (inactive),17.1 µM (inactive),4.75 µM (inactive),15.2 µM (inactive),19.8 µM (inactive),43.4 µM (inactive),24.4 µM (inactive),19.4 µM (inactive),13.6 µM (inactive),27.4 µM (inactive),3.83 µM (inactive)
